In brackets after ≈: the same amount, converted by molar mass.
Key:
[1] = biological target: Disintegrin and metalloproteinase domain-containing protein 17 (Homo sapiens, UniProt P78536); assay: Inhibition of TACE in human whole blood assessed as inhibition of LPS-stimulated TNFalpha production pretreated for 1 hr followed by LPS stimulation for 3.5 hrs by ELISA
Rattus norvegicus [2] = assay: AUC in rat assessed as (S)-5-(furo[3,2-b]pyridin-2-yl)-5-((6-methoxy-1-oxoisoindolin-2-yl)methyl)imidazolidine-2,4-dione level at 10 mg/kg, po by HPLC/MS analysis; format: ADME, organism-based; conditions: in vivo
Rattus norvegicus [3] = assay: AUC in rat assessed as (S)-5-(furo[3,2-b]pyridin-2-yl)-5-((6-methoxy-1-oxoisoindolin-2-yl)methyl)imidazolidine-2,4-dione level at 100 mg/kg, po administered as single dose by LC/MS/MS analysis; format: ADME, organism-based; conditions: in vivo
Rattus norvegicus [4] = assay: AUC in rat assessed as (S)-5-(furo[3,2-b]pyridin-2-yl)-5-((6-methoxy-1-oxoisoindolin-2-yl)methyl)imidazolidine-2,4-dione level at 300 mg/kg, po administered as single dose by LC/MS/MS analysis; format: ADME, organism-based; conditions: in vivo
Rattus norvegicus [5] = assay: AUC in rat assessed as (S)-5-(furo[3,2-b]pyridin-2-yl)-5-((6-methoxy-1-oxoisoindolin-2-yl)methyl)imidazolidine-2,4-dione level at 500 mg/kg, po administered as single dose by LC/MS/MS analysis; format: ADME, organism-based; conditions: in vivo
[6] = Permeability in human Caco2 cells at pH 7.4; format: ADME, cell-based; conditions: Caco-2, pH 7.4, read-out: permeability
[7] = Solubility of the compound at pH 6.5; format: physicochemical; conditions: buffer
Rattus norvegicus [8] = assay: Oral bioavailability in rat assessed as (S)-5-(furo[3,2-b]pyridin-2-yl)-5-((6-methoxy-1-oxoisoindolin-2-yl)methyl)imidazolidine-2,4-dione level at 10 mg/kg by LC/MS/MS analysis; format: ADME, organism-based; conditions: in vivo
Rhesus monkey = assay: Oral bioavailability in monkey assessed as (S)-5-(furo[3,2-b]pyridin-2-yl)-5-((6-methoxy-1-oxoisoindolin-2-yl)methyl)imidazolidine-2,4-dione level by LC/MS/MS analysis; format: ADME, organism-based, Macaca mulatta; conditions: in vivo
Canis familiaris = assay: Oral bioavailability in dog assessed as (S)-5-(furo[3,2-b]pyridin-2-yl)-5-((6-methoxy-1-oxoisoindolin-2-yl)methyl)imidazolidine-2,4-dione level by LC/MS/MS analysis; format: ADME, organism-based, Canis lupus familiaris; conditions: in vivo
[9] = Prodrug activation in human intestinal microsomes assessed as (S)-5-(furo[3,2-b]pyridin-2-yl)-5-((6-methoxy-1-oxoisoindolin-2-yl)methyl)imidazolidine-2,4-dione formation; parameters: species or system Intestine, Microsome
Liver [10] = assay: Prodrug activation in mouse liver microsomes assessed as (S)-5-(furo[3,2-b]pyridin-2-yl)-5-((6-methoxy-1-oxoisoindolin-2-yl)methyl)imidazolidine-2,4-dione formation; format: microsome
Liver [11] = assay: Prodrug activation in rat liver microsomes assessed as (S)-5-(furo[3,2-b]pyridin-2-yl)-5-((6-methoxy-1-oxoisoindolin-2-yl)methyl)imidazolidine-2,4-dione formation; format: microsome
Liver [12] = assay: Prodrug activation in dog liver microsomes assessed as (S)-5-(furo[3,2-b]pyridin-2-yl)-5-((6-methoxy-1-oxoisoindolin-2-yl)methyl)imidazolidine-2,4-dione formation; format: Canis lupus familiaris, microsome
[13] = Prodrug activation in monkey liver microsomes assessed as (S)-5-(furo[3,2-b]pyridin-2-yl)-5-((6-methoxy-1-oxoisoindolin-2-yl)methyl)imidazolidine-2,4-dione formation; format: Macaca mulatta, microsome; conditions: rhesus monkey
Liver [14] = assay: Prodrug activation in human liver microsomes assessed as (S)-5-(furo[3,2-b]pyridin-2-yl)-5-((6-methoxy-1-oxoisoindolin-2-yl)methyl)imidazolidine-2,4-dione formation; format: microsome
[15] = AUC in rat at 10 mg/kg, po by LC/MS/MS analysis; format: ADME, organism-based; conditions: in vivo
[16] = AUC in monkey at 10 mg/kg, po by LC/MS/MS analysis; format: ADME, organism-based, Macaca mulatta; conditions: rhesus monkey, in vivo
[17] = AUC in dog at 10 mg/kg, po by LC/MS/MS analysis; format: ADME, organism-based, Canis lupus familiaris; conditions: in vivo
[18] = Oral bioavailability in rat at 10 mg/kg by LC/MS/MS analysis; format: ADME, organism-based; conditions: in vivo
[19] = Oral bioavailability in monkey at 10 mg/kg by LC/MS/MS analysis; format: ADME, organism-based, Macaca mulatta; conditions: rhesus monkey, in vivo
[20] = Oral bioavailability in dog at 10 mg/kg by LC/MS/MS analysis; format: ADME, organism-based, Canis lupus familiaris; conditions: in vivo
Rattus norvegicus [21] = assay: AUC in rat assessed as (S)-5-(5-(4-ethylpiperazin-1-yl)furo[3,2-b]pyridin-2-yl)-5-((7-fluoro-6-methoxy-1-oxoisoindolin-2-yl)methyl)imidazolidine-2,4-dione level at 10 mg/kg, po by LC/MS/MS analysis; format: ADME, organism-based; conditions: in vivo
Rattus norvegicus [22] = assay: Oral bioavailability in rat assessed as (S)-5-(5-(4-ethylpiperazin-1-yl)furo[3,2-b]pyridin-2-yl)-5-((7-fluoro-6-methoxy-1-oxoisoindolin-2-yl)methyl)imidazolidine-2,4-dione level at 10 mg/kg by LC/MS/MS analysis; format: ADME, organism-based; conditions: in vivo
[23] = AUC in rat at 100 mg/kg, po administered as single dose by LC/MS/MS analysis; format: ADME, organism-based; conditions: in vivo
[24] = AUC in rat at 300 mg/kg, po administered as single dose by LC/MS/MS analysis; format: ADME, organism-based; conditions: in vivo
[25] = AUC in rat at 500 mg/kg, po administered as single dose by LC/MS/MS analysis; format: ADME, organism-based; conditions: in vivo
[26] = AUC in rat at 10 mg/kg, po by HPLC/MS analysis; format: ADME, organism-based; conditions: in vivo

Chain of Disintegrin and metalloproteinase domain-containing protein 17 (P78536 whole entry, the tested form may be a part): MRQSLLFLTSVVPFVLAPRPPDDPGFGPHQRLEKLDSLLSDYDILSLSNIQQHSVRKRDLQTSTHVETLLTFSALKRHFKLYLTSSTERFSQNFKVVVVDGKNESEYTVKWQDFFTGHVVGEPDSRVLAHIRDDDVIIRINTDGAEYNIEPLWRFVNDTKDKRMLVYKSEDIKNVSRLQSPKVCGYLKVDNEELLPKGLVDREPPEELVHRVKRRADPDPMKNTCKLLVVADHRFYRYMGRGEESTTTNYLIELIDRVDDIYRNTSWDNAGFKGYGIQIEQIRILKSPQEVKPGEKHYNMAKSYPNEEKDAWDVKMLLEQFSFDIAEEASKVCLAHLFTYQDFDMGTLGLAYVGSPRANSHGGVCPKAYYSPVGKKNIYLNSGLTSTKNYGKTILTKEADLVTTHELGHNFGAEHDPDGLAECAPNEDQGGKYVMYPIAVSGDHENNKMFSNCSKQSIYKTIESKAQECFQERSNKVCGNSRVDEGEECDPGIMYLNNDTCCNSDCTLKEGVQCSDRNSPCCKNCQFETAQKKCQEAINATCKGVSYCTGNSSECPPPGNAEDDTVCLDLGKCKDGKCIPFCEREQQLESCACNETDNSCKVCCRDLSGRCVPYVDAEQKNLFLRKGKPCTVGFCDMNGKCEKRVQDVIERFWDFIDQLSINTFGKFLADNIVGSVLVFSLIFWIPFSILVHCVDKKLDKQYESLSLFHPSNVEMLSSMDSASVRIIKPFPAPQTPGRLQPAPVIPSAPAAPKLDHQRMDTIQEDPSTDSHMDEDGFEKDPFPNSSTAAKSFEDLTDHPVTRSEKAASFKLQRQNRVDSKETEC

IC50 [1]	AUC (Rattus norvegicus [2])	Structure (SMILES)	further results
560 nM	4.4 µM·h	COc1ccc2c(c1)C(=O)N(C[C@@]1(c3cc4ncccc4o3)NC(=O)N(COC(=O)c3ccccc3OC(C)=O)C1=O)C2	–
281 nM	13.1 µM·h	COc1ccc2c(c1)C(=O)N(C[C@@]1(c3cc4ncccc4o3)NC(=O)N(COC(=O)C(C)(C)C)C1=O)C2	AUC (Rattus norvegicus [3]): 210 µM·h; AUC (Rattus norvegicus [4]): 780 µM·h; AUC (Rattus norvegicus [5]): 1450 µM·h; Papp [6]: > 11.6 ×10⁻⁶ cm/s; solubility [7]: 175 µM (≈ 88.6 µg/mL); F (Rattus norvegicus [8]): 74%; F (Rhesus monkey): 92%; F (Canis familiaris): 72%; Drug metabolism [9]: Metabolite_Detected; Drug metabolism (Liver [10]): Metabolite_Detected; Drug metabolism (Liver [11]): Metabolite_Detected; Drug metabolism (Liver [12]): Metabolite_Detected; Drug metabolism [13]: Metabolite_Detected; Drug metabolism (Liver [14]): Metabolite_Detected
176 nM	0.7 µM·h	CCN1CCN(c2ccc3oc([C@]4(CN5Cc6ccc(OC)cc6C5=O)NC(=O)N(COC(=O)C(C)(C)C)C4=O)cc3n2)CC1	–
339 nM	2.7 µM·h	COc1ccc2c(c1)C(=O)N(C[C@@]1(c3cc4nc(N5CC[C@@H](O)C5)ccc4o3)NC(=O)N(COC(=O)C(C)(C)C)C1=O)C2	–
–	0.02 µM·h	COCCOCCOCCN1C(=O)N[C@@](CN2Cc3ccc(OC)cc3C2=O)(c2cc3ncccc3o2)C1=O	–
104 nM	0.6 µM·h	COc1ccc2c(c1F)C(=O)N(C[C@@]1(c3cc4nc(N5CCNC(=O)C5)ccc4o3)NC(=O)N(COC(=O)C(C)(C)C)C1=O)C2	–
–	–	COc1ccc2c(c1)C(=O)N(C[C@@]1(c3cc4ncccc4o3)NC(=O)NC1=O)C2.[Na+]	AUC [15]: 10 µM·h; AUC [16]: 5.2 µM·h; AUC [17]: 41 µM·h; bioavailability [18]: 35%; bioavailability [19]: 46%; bioavailability [20]: 82%
–	3.1 µM·h	COc1ccc2c(c1)C(=O)N(C[C@]1(c3cc4ncccc4o3)C(=O)N(COC(=O)C(C)(C)C)C(=O)N1COC(=O)C(C)(C)C)C2	–
92 nM	8.6 µM·h	COc1ccc2c(c1F)C(=O)N(C[C@@]1(c3cc4nc(N5CCN(C)CC5)ccc4o3)NC(=O)N(COC(=O)C(C)(C)C)C1=O)C2	–
7150 nM	0.4 µM·h	COc1ccc2c(c1)C(=O)N(C[C@@]1(c3cc4ncccc4o3)NC(=O)N(C(C)C)C1=O)C2	–
61 nM	20 µM·h	CCN1CCN(c2ccc3oc([C@]4(CN5Cc6ccc(OC)c(F)c6C5=O)NC(=O)N(COC(=O)C(C)(C)C)C4=O)cc3n2)CC1	AUC (Rattus norvegicus [21]): 4.7 µM·h; F (Rattus norvegicus [22]): 7%
–	0.9 µM·h	COc1ccc2c(c1)C(=O)N(C[C@@]1(c3cc4ncccc4o3)NC(=O)N(C)C1=O)C2	–
178 nM	0.4 µM·h	COc1ccc2c(c1F)C(=O)N(C[C@@]1(c3cc4nc(N)ccc4o3)NC(=O)N(COC(=O)C(C)(C)C)C1=O)C2	–
282 nM	0.2 µM·h	COc1ccc2c(c1)C(=O)N(C[C@@]1(c3cc4nc(N5CCCNC5=O)ccc4o3)NC(=O)N(COC(=O)C(C)(C)C)C1=O)C2	–
156 nM	–	COc1ccc2c(c1)C(=O)N(C[C@@]1(c3cc4nc(N5CCNCC5)ccc4o3)NC(=O)N(COC(=O)C(C)(C)C)C1=O)C2	–
–	0.05 µM·h	CCOP(=O)(OCC)OCN1C(=O)N[C@@](CN2Cc3ccc(OC)cc3C2=O)(c2cc3ncccc3o2)C1=O	–
141 nM	0.3 µM·h	COc1ccc2c(c1F)C(=O)N(C[C@@]1(c3cc4nc(-c5cn[nH]c5)ccc4o3)NC(=O)N(COC(=O)C(C)(C)C)C1=O)C2	–
–	0.9 µM·h	CCN1C(=O)N[C@@](CN2Cc3ccc(OC)cc3C2=O)(c2cc3ncccc3o2)C1=O	–
287 nM	–	COc1ccc2c(c1)C(=O)N(C[C@@]1(c3cc4ncccc4o3)NC(=O)NC1=O)C2	AUC [23]: 120 µM·h; AUC [24]: 130 µM·h; AUC [25]: 240 µM·h; AUC [26]: 8.6 µM·h; Papp [6]: 1.2 ×10⁻⁶ cm/s; solubility [7]: 39 µM (≈ 15.3 µg/mL)
